In patent US20050250137A1, “Molecular targets of cancer and aging” (priority 2002, published 2005):

Experiment: GoMiner gene ontology analysis of differentially regulated genes
Parameters: species or system human
[1] = Biological process: Bbiological—process unknown, GO 0000004, Total 232
[2] = Biological process: Cell adhesion, GO 0007155, Total 361
[3] = Biological process: Cell death, GO 0008219, Total 272
[4] = Biological process: Cell differentiation, GO 0030154, Total 106
[5] = Biological process: Cell motility, GO 0006928, Total 222
[6] = Biological process: Cell organization and biogenesis, GO 0016043, Total 282
[7] = Biological process: Cell proliferation, GO 0008283, Total 667
[8] = Biological process: Cell-cell signaling, GO 0007267, Total 365
[9] = Biological process: Metabolism, GO 0008152, Total 3192
[10] = Biological process: Response to endogenous stimulus, GO 0009719, Total 134
[11] = Biological process: Response to extracellular stimulus, GO 0009991, Total 10
[12] = Biological process: Response to stress, GO 0006950, Total 501
[13] = Biological process: Signal transduction, GO 0007165, Total 1321
[14] = Biological process: Transport, GO 0006810, Total 873
[15] = Biological process: alcohol metabolism, GO 0006066, Total 151
[16] = Biological process: amine metabolism, GO 0009308, Total 175
[17] = Biological process: amino acid and derivative metabolism, GO 0006519, Total 149
[18] = Biological process: anti-apoptosis, GO 0006916, Total 59
[19] = Biological process: apoptotic program, GO 0008632, Total 26
[20] = Biological process: biosynthesis, GO 0009058, Total 525
[21] = Biological process: carbohydrate metabolism, GO 0005975, Total 228
[22] = Biological process: catabolism, GO 0009056, Total 450
[23] = Biological process: cell cycle, GO 0007049, Total 442
[24] = Biological process: cell migration, GO 0016477, Total 39
[25] = Biological process: cell surface receptor linked signal transduction, GO 0007166, Total 588
[26] = Biological process: cell—cell adhesion, GO 0016337, Total 124
[27] = Biological process: cytokinesis, GO 0000910, Total 64
[28] = Biological process: cytoplasm organization and biogenesis, GO 0007028, Total 166
[29] = Biological process: electron transport, GO 0006118, Total 150
[30] = Biological process: energy pathways, GO 0006091, Total 158
[31] = Biological process: induction of apoptosis, GO 0006917, Total 83
[32] = Biological process: induction of programmed cell death, GO 0012502, Total 83
[33] = Biological process: intracellular signaling cascade, GO 0007242, Total 444
[34] = Biological process: intracellular transport, GO 0046907, Total 258
[35] = Biological process: ion transport, GO 0006811, Total 320
[36] = Biological process: lipid metabolism, GO 0006629, Total 299
[37] = Biological process: lymphocyte differentiation, GO 0030098, Total 22
[38] = Biological process: nuclear organization and biogenesis, GO 0006997, Total 109
[39] = Biological process: nucleobase, nucleoside, nucleotide and nucleic acid metabolism, GO 0006139, Total 1351
[40] = Biological process: organic acid metabolism, GO 0006082, Total 226
[41] = Biological process: phosphorus metabolism, GO 0006793, Total 423
[42] = Biological process: protein metabolism, GO 0019538, Total 1170
[43] = Biological process: protein transport, GO 0015031, Total 223
[44] = Biological process: regulation of cell proliferation, GO 0042127, Total 175
[45] = Biological process: regulation of metabolism, GO 0019222, Total 32
[46] = Biological process: response to DNA damage stimulus (under Response to endogenous stimulus), GO 0006974, Total 133
[47] = Biological process: response to DNA damage stimulus (under Response to stress), GO 0006974, Total 133
[48] = Biological process: response to abiotic stimulus, GO 0009628, Total 224
[49] = Biological process: response to biotic stimulus, GO 0009607, Total 552
[50] = Biological process: response to external stimulus, GO 0009605, Total 813
[51] = Biological process: response to pest/pathogen/parasite, GO 0009613, Total 287
[52] = Biological process: response to wounding, GO 0009611, Total 173
[53] = Biological process: taxis, GO 0042330, Total 77
[54] = Biological process: vesicle-mediated transport, GO 0016192, Total 167

## Nc1ncn([C@H]2C[C@H](O)[C@@H](CO)O2)c(=O)n1 [5-aza-dC, 5-aza-2′-deoxycytidine]
[1]
  5-aza-dC Down: 2
  5-aza-dC Up: 6
[2]
  5-aza-dC Down: 0
  5-aza-dC Up: 7
[3]
  5-aza-dC Down: 2
  5-aza-dC Up: 15
[4]
  5-aza-dC Down: 1
  5-aza-dC Up: 5
[5]
  5-aza-dC Down: 1
  5-aza-dC Up: 1
[6]
  5-aza-dC Down: 0
  5-aza-dC Up: 12
[7]
  5-aza-dC Down: 11
  5-aza-dC Up: 18
[8]
  5-aza-dC Down: 0
  5-aza-dC Up: 11
[9]
  5-aza-dC Down: 18
  5-aza-dC Up: 78
[10]
  5-aza-dC Down: 1
  5-aza-dC Up: 2
[11]
  5-aza-dC Down: 0
  5-aza-dC Up: 1
[12]
  5-aza-dC Down: 3
  5-aza-dC Up: 21
[13]
  5-aza-dC Down: 6
  5-aza-dC Up: 33
[14]
  5-aza-dC Down: 1
  5-aza-dC Up: 12
[15]
  5-aza-dC Down: 2
  5-aza-dC Up: 4
[16]
  5-aza-dC Down: 1
  5-aza-dC Up: 3
[17]
  5-aza-dC Down: 1
  5-aza-dC Up: 3
[18]
  5-aza-dC Down: 0
  5-aza-dC Up: 5
[19]
  5-aza-dC Down: 1
  5-aza-dC Up: 3
[20]
  5-aza-dC Down: 6
  5-aza-dC Up: 7
[21]
  5-aza-dC Down: 2
  5-aza-dC Up: 4
[22]
  5-aza-dC Down: 2
  5-aza-dC Up: 9
[23]
  5-aza-dC Down: 7
  5-aza-dC Up: 14
[24]
  5-aza-dC Down: 0
  5-aza-dC Up: 1
[25]
  5-aza-dC Down: 2
  5-aza-dC Up: 14
[26]
  5-aza-dC Down: 0
  5-aza-dC Up: 1
[27]
  5-aza-dC Down: 2
  5-aza-dC Up: 0
[28]
  5-aza-dC Down: 0
  5-aza-dC Up: 1
[29]
  5-aza-dC Down: 2
  5-aza-dC Up: 4
[30]
  5-aza-dC Down: 2
  5-aza-dC Up: 1
[31]
  5-aza-dC Down: 0
  5-aza-dC Up: 3
[32]
  5-aza-dC Down: 0
  5-aza-dC Up: 3
[33]
  5-aza-dC Down: 2
  5-aza-dC Up: 10
[34]
  5-aza-dC Down: 1
  5-aza-dC Up: 6
[35]
  5-aza-dC Down: 0
  5-aza-dC Up: 2
[36]
  5-aza-dC Down: 1
  5-aza-dC Up: 4
[37]
  5-aza-dC Down: 0
  5-aza-dC Up: 3
[38]
  5-aza-dC Down: 0
  5-aza-dC Up: 11
[39]
  5-aza-dC Down: 6
  5-aza-dC Up: 41
[40]
  5-aza-dC Down: 1
  5-aza-dC Up: 3
[41]
  5-aza-dC Down: 5
  5-aza-dC Up: 9
[42]
  5-aza-dC Down: 9
  5-aza-dC Up: 27
[43]
  5-aza-dC Down: 1
  5-aza-dC Up: 7
[44]
  5-aza-dC Down: 3
  5-aza-dC Up: 8
[45]
  5-aza-dC Down: 0
  5-aza-dC Up: 1
[46]
  5-aza-dC Down: 1
  5-aza-dC Up: 2
[47]
  5-aza-dC Down: 1
  5-aza-dC Up: 2
[48]
  5-aza-dC Down: 0
  5-aza-dC Up: 8
[49]
  5-aza-dC Down: 1
  5-aza-dC Up: 26
[50]
  5-aza-dC Down: 2
  5-aza-dC Up: 30
[51]
  5-aza-dC Down: 1
  5-aza-dC Up: 17
[52]
  5-aza-dC Down: 1
  5-aza-dC Up: 14
[53]
  5-aza-dC Down: 0
  5-aza-dC Up: 7
[54]
  5-aza-dC Down: 0
  5-aza-dC Up: 2
Cellular component: Cellular—component unknown, GO 0008372, Total 266
  5-aza-dC Down: 2
